In US10875851B2, “Factor XIIa inhibitors” (Merck Sharp & Dohme Corp., priority 2016, dated 2020) one finds IC50 data, which are given here for 23 molecules.

Sequence of human Factor XIIa (P00748 373-615): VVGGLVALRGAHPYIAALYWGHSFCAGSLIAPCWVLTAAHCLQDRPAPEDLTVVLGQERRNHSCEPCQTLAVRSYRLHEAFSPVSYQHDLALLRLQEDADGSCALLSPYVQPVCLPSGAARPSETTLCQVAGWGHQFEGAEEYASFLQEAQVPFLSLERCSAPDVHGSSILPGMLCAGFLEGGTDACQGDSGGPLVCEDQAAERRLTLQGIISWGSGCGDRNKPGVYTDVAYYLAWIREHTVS

The target in this experiment is human Factor XIIa (Homo sapiens (Human), UniProt P00748). Kind of experiment: Factor XIIa Assay. To be noted: purified human Factor XIIa 500 pM; substrate n-Acetyl-Lys-Pro-Arg-AFC 100 μM; pH 7.4; read-out: FXIIa IC50. It is filed as biochemical. On the procedure:
The effectiveness of a compound of the present invention as an inhibitor of Coagulation Factor XIIa can be determined using a relevant purified serine protease, and an appropriate synthetic substrate. The rate of hydrolysis of the chromogenic or fluorogenic substrate by the relevant serine protease was measured both in the absence and presence of compounds of the present invention. Assays were conducted at room temperature or at 37° C. […] A decrease in the rate of fluorescence change in the presence of inhibitor is indicative of enzyme inhibition. Such methods are known to one skilled in the art.
Factor XIIa activity determinations were made in 50 mM HEPES buffer containing 150 mM NaCl, 5 mM CaCl2, and 0.1% PEG 8000 (polyethylene glycol; JT Baker or Fisher Scientific) at pH 7.4. Determinations were made using purified human Factor XIIa at a final concentration of 500 pM (Sekisui Diagnostics) and the synthetic substrate, n-Acetyl-Lys-Pro-Arg-AFC, TFA salt (Sigma #C6608) at a concentration of 100 μM.
Times required to achieve equilibration between enzyme and inhibitor were determined in control experiments. Initial velocities of product formation in the absence (Vo) or presence of inhibitor (Vi) were measured. IC50 was determined as the concentration of I yielding Vi=Vo/2.
Regarding `NCc1ccc(CNC(=O)[C@@H]2CN(C(=O)Oc3ccccc3Cl)CCN2C(=O)[C@@H](CC2CCCCC2)NC2CCCCC2)cc1` [Example 5, 2-chlorophenyl (3S)-3-{[4-(aminomethyl)benzyl]carbamoyl}-4-(N,3-dicyclohexyl-D-alanyl)piperazine-1-carboxylate], the IC50 (commonly the concentration needed to halve the response being measured) is 5.9 nM.
`O=C(NCc1cccs1)[C@@H]1CN(C(=O)Oc2cccc3cncnc23)CCN1C(=O)[C@@H](CC1CCCCC1)NC1CCCCC1` [Example 18, quinazolin-8-yl (3S)-4-(N,3-dicyclohexyl-D-alanyl)-3-[(thiophen-2-ylmethyl)carbamoyl]piperazine-1-carboxylate]: the IC50 worked out at 4.5 nM.
On to `NCc1ccc(OC(=O)N2CCN(C(=O)[C@@H](CC3CCCCC3)NC3CCCCC3)[C@H](C(=O)NCc3cccs3)C2)c(Cl)c1` [Example 21, 4-(aminomethyl)-2-chlorophenyl (3S)-4-(N,3-dicyclohexyl-D-alanyl)-3-[(thiophen-2-ylmethyl)carbamoyl]piperazine-1-carboxylate], for which the IC50 amounted to 6.7 nM.
In the case of `COc1cc(CNC(=O)[C@@H]2CN(C(=O)Oc3cccc4ccccc34)CCN2C(=O)[C@@H](CC2CCCCC2)NC2CCCCC2)ccc1CN` [Example 24, naphthalen-1-yl (3S)-3-{[4-(aminomethyl)-3-methoxybenzyl]carbamoyl}-4-(N,3-dicyclohexyl-D-alanyl)piperazine-1-carboxylate], the IC50 is 1.6 nM.
On to `NCc1ccc(CNC(=O)[C@@H]2CN(C(=O)Oc3cccc4ccccc34)CCN2C(=O)[C@@H](CC2CCCCC2)NC2CCCCC2)cc1` [Example 26, naphthalen-1-yl (3S)-3-{[4-(aminomethyl)benzyl]carbamoyl}-4-(N,3-dicyclohexyl-D-alanyl)piperazine-1-carboxylate], for which the IC50 came out at 8.4 nM.
With `COc1cc(CNC(=O)[C@@H]2CN(C(=O)Oc3cccc4ccccc34)CCN2C(=O)[C@@H](CC2CCCCC2)NC2CCC3(CC2)CCN(Cc2ccccc2)C3)ccc1CN` (stereo partly drawn) [Example 28, naphthalen-1-yl (3S)-3-{[4-(aminomethyl)-3-methoxybenzyl]carbamoyl}-4-[N-(2-benzyl-2-azaspiro[4.5]dec-8-yl)-3-cyclohexyl-D-alanyl]piperazine-1-carboxylate] the figure was 3.9 nM; with `Cc1ncnc2c(OC(=O)N3CCN(C(=O)[C@@H](CC4CCCCC4)NC4CCCCC4)[C@H](C(=O)NCc4cccs4)C3)cccc12` [Example 29, 4-methylquinazolin-8-yl (3S)-4-(N,3-dicyclohexyl-D-alanyl)-3-[(thiophen-2-ylmethyl)carbamoyl]piperazine-1-carboxylate], 3.3 nM.
Consider `O=C(NCc1cccs1)[C@@H]1CN(C(=O)Oc2cccc3cccnc23)CCN1C(=O)[C@@H](CC1CCCCC1)NC1CCCCC1` [Example 30, quinolin-8-yl (3S)-4-(N,3-dicyclohexyl-D-alanyl)-3-[(thiophen-2-ylmethyl)carbamoyl]piperazine-1-carboxylate], for which the 50% inhibitory concentration (IC50) came to 5.8 nM.
Then `O=C(NCc1cccs1)[C@@H]1CN(C(=O)Oc2ccc(F)c3cccnc23)CCN1C(=O)[C@@H](CC1CCCCC1)NC1CCCCC1` [Example 32, 5-fluoroquinolin-8-yl (3S)-4-(N,3-dicyclohexyl-D-alanyl)-3-[(thiophen-2-ylmethyl)carbamoyl]piperazine-1-carboxylate], with 5.2 nM; and `O=C(NCc1cccs1)[C@@H]1CN(C(=O)Oc2cccc3ccc(O)nc23)CCN1C(=O)[C@@H](CC1CCCCC1)NC1CCCCC1` [Example 33, 2-hydroxyquinolin-8-yl (3S)-4-(N,3-dicyclohexyl-D-alanyl)-3-[(thiophen-2-ylmethyl)carbamoyl]piperazine-1-carboxylate], with 20 nM.
With `O=C(NCc1cccs1)[C@@H]1CN(C(=O)Oc2cccc3c2CCNC3)CCN1C(=O)[C@@H](CC1CCCCC1)NC1CCCCC1` [Example 36, 1,2,3,4-tetrahydroisoquinolin-5-yl (3S)-4-(N,3-dicyclohexyl-D-alanyl)-3-[(thiophen-2-ylmethyl)carbamoyl]piperazine-1-carboxylate] the figure was 4.1 nM; with `O=C(NCc1cccs1)[C@@H]1CN(C(=O)Oc2cccc3c2CNCC3)CCN1C(=O)[C@@H](CC1CCCCC1)NC1CCCCC1` [Example 37, 1,2,3,4-tetrahydroisoquinolin-8-yl (3S)-4-(N,3-dicyclohexyl-D-alanyl)-3-[(thiophen-2-ylmethyl)carbamoyl]piperazine-1-carboxylate], 5.3 nM.
With `CS(=O)(=O)N1CCC([C@@H](NC2CCCCC2)C(=O)N2CCN(C(=O)Oc3ccccc3Cl)C[C@H]2C(=O)NCc2cccs2)CC1` [Example 42, 2-chlorophenyl (3S)-4-{(2R)-2-(cyclohexylamino)-2-[1-(methylsulfonyl)piperidin-4-yl]acetyl}-3-[(thiophen-2-ylmethyl)carbamoyl]piperazine-1-carboxylate] the figure was 6 nM; with `COc1cc(CNC(=O)[C@@H]2CN(C(=O)Oc3ccc4ccccc4c3Cl)CCN2C(=O)[C@@H](CC2CCCCC2)NC2CCCCC2)ccc1CN` [Example 44, 1-chloronaphthalen-2-yl (3S)-3-{[4-(aminomethyl)-3-methoxybenzyl]carbamoyl}-4-(N,3-dicyclohexyl-D-alanyl)piperazine-1-carboxylate], 2.7 nM.
On to `CS(=O)(=O)NCCCC[C@@H](NC1CCC2(CC1)CCN(Cc1ccccc1)C2)C(=O)N1CCN(C(=O)Oc2ccccc2Cl)C[C@H]1C(=O)NCc1cccs1` (stereo partly drawn) [Example 54, 2-chlorophenyl (3S)-4-[N^2-(2-benzyl-2-azaspiro[4.5]dec-8-yl)-N~6~- (methylsulfonyl)-D-lysyl]-3-[(thiophen-2-ylmethyl)carbamoyl]piperazine-1-carboxylate], for which the IC50 stood at 8.1 nM.
As for `NCc1cccc(OC(=O)N2CCN(C(=O)[C@@H](CC3CCCCC3)NC3CCCCC3)[C@H](C(=O)NCc3cccs3)C2)c1Cl` [Example 55, 3-(aminomethyl)-2-chlorophenyl (3S)-4-(N,3-dicyclohexyl-D-alanyl)-3-[(thiophen-2-ylmethyl)carbamoyl]piperazine-1-carboxylate], the IC50 worked out at 1.1 nM.
For the molecule `NCc1ccc(OC(=O)N2CCN(C(=O)[C@@H](CC3CCCCC3)NC3CCC4(CC3)CCN(Cc3ccccc3)C4)[C@H](C(=O)NCc3cccs3)C2)c2ccccc12` (stereo partly drawn) [Example 59, 4-(aminomethyl)naphthalen-1-yl (3S)-4-[N-(2-benzyl-2-azaspiro[4.5]dec-8-yl)-3-cyclohexyl-D-alanyl]-3-[(thiophen-2-ylmethyl)carbamoyl]piperazine-1-carboxylate], the IC50 is 4.6 nM.
With `CCS(=O)(=O)N1CCC([C@@H](NC2CCCCC2)C(=O)N2CCN(C(=O)Oc3ccccc3Cl)C[C@H]2C(=O)NCc2cccs2)CC1` [Example 61, 2-chlorophenyl (3S)-4-{(2R)-2-(cyclohexylamino)-2-[1-(ethylsulfonyl)piperidin-4-yl]acetyl}-3-[(thiophen-2-ylmethyl)carbamoyl]piperazine-1-carboxylate] the figure was 4.2 nM.
In the case of `O=C(NCc1cccs1)[C@@H]1CN(C(=O)Oc2ccccc2Cl)CCN1C(=O)[C@H](NC1CCCCC1)C1CCN(S(=O)(=O)C2CC2)CC1` [Example 62, 2-chlorophenyl (3S)-4-{(2R)-2-(cyclohexylamino)-2-[1-(cyclopropylsulfonyl)piperidin-4-yl]acetyl}-3-[(thiophen-2-ylmethyl)carbamoyl]piperazine-1-carboxylate], the IC50 was 1.7 nM.
For `CC(C)S(=O)(=O)N1CCC([C@@H](NC2CCCCC2)C(=O)N2CCN(C(=O)Oc3ccccc3Cl)C[C@H]2C(=O)NCc2cccs2)CC1` [Example 63, 2-chlorophenyl (3S)-4-[(2R)-2-(cyclohexylamino)-2-{1-[(1-methylethyl)sulfonyl]piperidin-4-yl}acetyl]-3-[(thiophen-2-ylmethyl)carbamoyl]piperazine-1-carboxylate], the IC50 came out at 2.6 nM.
As for `CC(C)(C)C(=O)N1CCC([C@@H](NC2CCCCC2)C(=O)N2CCN(C(=O)Oc3ccccc3Cl)C[C@H]2C(=O)NCc2cccs2)CC1` [Example 69, 2-chlorophenyl (3S)-4-{(2R)-2-(cyclohexylamino)-2-[1-(2,2-dimethylpropanoyl)piperidin-4-yl]acetyl}-3-[(thiophen-2-ylmethyl)carbamoyl]piperazine-1-carboxylate], the IC50 is 8.4 nM.
In the case of `CS(=O)(=O)NCCCC[C@@H](NC1CCCCC1)C(=O)N1CCN(C(=O)Oc2ccc3ccccc3c2Cl)C[C@H]1C(=O)NCc1cccs1` [Example 70, 1-chloronaphthalen-2-yl (3S)-4-[N^2-cyclohexyl-N^6-(methylsulfonyl)-D-lysyl]-3-[(thiophen-2-ylmethyl)carbamoyl]piperazine-1-carboxylate], the IC50 stood at 20 nM.
For `CN(C)CCCC[C@@H](NC1CCCCC1)C(=O)N1CCN(C(=O)Oc2ccccc2Cl)C[C@H]1C(=O)NCc1cccs1` [Example 73, 2-chlorophenyl (3S)-4-(N^2-cyclohexyl-N^6,N^6-dimethyl-D-lysyl)-3-[(thiophen-2-ylmethyl)carbamoyl]piperazine-1-carboxylate], the IC50 came to 1.1 nM.
